We go through two compounds from patent publication EP0336446A1, “Gene and gene product for the production of beta-lactam-compounds” (BIOCHEMIE GESELLSCHAFT M.B.H., priority 1988, dated 1989).

Assay [1] concerns the target T1, PAT (Penicillium chrysogenum, UniProt P15802). The assay can be described thus: Microbiological test of 6-APA-PaCoA acyltransferase activity (acylation of 6-APA with PaCoA to Penicillin V), indicator strain Micrococcus luteus ATCC 9341/BC 85. It is filed as biochemical, Penicillium chrysogenum P2/ATCC 48271. The note with it: for 6-APA-PaCoA Transacylierungsaktivität (mm HH Ø): Stabilisierung, 5% Sorbit / 1 mM PMSF / 1% BSA / 10% Glycerin / 5% Mannit / 100 µg 6-APA/ml.

The target in assay [2] is T1, PAT. Put plainly: Substrate specificity of purified PAT (fraction AL 278/2), specific enzyme activity by HPLC. It counts as biochemical, Penicillium chrysogenum P2/ATCC 48271. The conditions noted are these: labelled substance = Acylakzeptor.

Where “and” joins values, the source holds several entries; their conditions need not be identical. Identical values can stand only once.

T1 sequence (P15802 103-357 limits assumed): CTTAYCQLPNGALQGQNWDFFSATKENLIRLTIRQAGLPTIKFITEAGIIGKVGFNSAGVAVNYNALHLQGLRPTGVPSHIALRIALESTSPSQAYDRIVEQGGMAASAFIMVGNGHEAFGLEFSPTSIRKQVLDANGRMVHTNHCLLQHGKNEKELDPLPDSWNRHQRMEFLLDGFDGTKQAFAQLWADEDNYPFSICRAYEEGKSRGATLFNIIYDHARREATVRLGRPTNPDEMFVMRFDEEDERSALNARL
T1 sequence (P15802 1-102 limits assumed): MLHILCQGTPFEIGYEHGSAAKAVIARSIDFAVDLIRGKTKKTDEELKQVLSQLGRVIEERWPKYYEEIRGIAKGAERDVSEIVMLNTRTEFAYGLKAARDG

Consider `CC1(C)S[C@@H]2[C@H](N)C(=O)N2[C@H]1C(=O)O` [6-APA, 6-Aminopenicillansäure], for which the “Als Vergleich Transacylierung 6-APA + PaCoA → Penicillin V” value on PAT [1] was 17.0 mm and 23.2 mm and 26.9 mm and 25.9 mm. The results for the “mittels HPLC bestimmte spezifische Enzymaktivität (mU/mg Protein) A1 278/2” value on PAT [2] (Acyldonator PaCoA) and on PAT [2] (Acyldonator PeCoA) were 393 mU/mg Protein and 329 mU/mg Protein, respectively.
For the compound `OCC(O)CO` [Glycerin], the “6-APA-PaCoA Transacylierungsaktivität (mm HH Ø)” value at PAT [1] (24 h bei +4°C, reaction 30', control ohne Zusatz Spur) amounted to 11.5 mm; on PAT [1] (24 h bei +4°C, reaction sofort, control ohne Zusatz 0), 0 mm; at PAT [1] (24 h bei -20°C, reaction 30', control ohne Zusatz 38), 38 mm; on PAT [1] (24 h bei -20°C, reaction sofort, control ohne Zusatz 15.2), 15.2 mm; at PAT [1] (Testung sofort, reaction 30', control ohne Zusatz 33.4) it was 33.1 mm; on PAT [1] (Testung sofort, reaction sofort, control ohne Zusatz 21.5), 22.0 mm.
